Measurements reported in US20220125745A1, “PHARMACEUTICAL COMPOSITION FOR CO-ADMINISTRATION OF ACIDOSIS-INDUCING DRUG” (HAIM BIO CO., LTD., priority 2018, published 2022).
Read-outs that look alike come from different tables or passages of the source.

What was measured:
[1] = test system: A549 cells (cancer cells); assay: Lactate assay (luminescence) in A549 cells, candidate substance alone or combined with a substance that causes lactic acidosis; assay type: cell-based; settings: for activity at 50 µM: Homo sapiens
Protocol: (§1) To identify the effects of administration of the candidate substances for lactic acidosis treatment as described in Example 1 in combination with the above-mentioned substances that cause lactic acidosis, A549 cells (cancer cells) or L132 cells (normal cells) were respectively seeded in 96- or 24-well plates at a concentration of 1×10^4 or 3×10^5 cells/well, and incubation was performed overnight. Administration of the candidate substance for acidosis treatment in combination with the substance that causes lactic acidosis was performed and incubation was further performed for 24 hours. For the candidate substances for acidosis treatment, each substance was administered at a uniform concentration of 50 μM; and for the substances that cause lactic acidosis, metformin was administered at 1 to 100 μM, isoniazid was administered at 1 to 500 μM, berberine was administered at 10 μM, linezolid was administered at 200 μM, and phenformin was administered at 100 μM. All substances were dissolved in dimethyl sulfoxide (DMSO, Sigma-Aldrich Corporation, St. Louis, Mo., USA), and the substances to be administered in combination were administered simultaneously. Subsequently, 50 μl of the cell culture solution obtained by being diluted with Dulbecco's Phosphate-Buffered Saline (DPBS; Wellgene, Korea), and 50 μl of the lactate assay reaction buffer (Promega, Madison, Wis., USA) were mixed and the mixture was added in a 96-well plate. Reaction was allowed to proceed at room temperature for 1 hour. Then, luminescence was measured with a spectrophotometer (Synergy HTX Multi-Reader; BioTek, Winooski, Vt., USA). At the same time, the number of cells in each sample was measured with a cell viability analysis kit (Cell Counting Kit-8; Dojindo Molecular Technologies, Inc., Kumamoto, Japan), and calculation was performed so that the lactic acid measurement value in each sample could be compared with that in the negative control for the same number of cells.

[2] = test system: L132 cells (normal cells); assay: Lactate assay (luminescence) in L132 cells, candidate substance alone or combined with a substance that causes lactic acidosis; assay type: cell-based; settings: for activity at 50 µM: Homo sapiens
Protocol: as §1

[3] = A549, candidate 50 μM + berberine 10 μM, relative to berberine alone (PC)
[4] = A549, candidate 50 μM + linezolid 200 μM, relative to linezolid alone (PC)
[5] = A549, candidate 50 μM + phenformin 100 μM, relative to phenformin alone (PC)
[6] = L132, candidate 50 μM + berberine 10 μM, relative to berberine alone (PC)
[7] = L132, candidate 50 μM + linezolid 200 μM, relative to linezolid alone (PC)
[8] = L132, candidate 50 μM + phenformin 100 μM, relative to phenformin alone (PC)
[9] = A549, candidate 50 μM alone, no berberine, 24 h, vs negative control, mean ± SEM, read-out: Luminescence intensity (%), Berberine (10 μM) −
[10] = A549, candidate 50 μM alone, no linezolid, 24 h, vs negative control, mean ± SEM, read-out: Luminescence intensity (%), Linezolid (200 μM) −
[11] = A549, candidate 50 μM alone, no phenformin, 24 h, vs negative control, mean ± SEM, read-out: Luminescence intensity (%), Phenformin (100 μM) −
[12] = L132, candidate 50 μM alone, no berberine, 24 h, vs negative control, mean ± SEM, read-out: Luminescence intensity (%), Berberine (10 μM) −
[13] = L132, candidate 50 μM alone, no linezolid, 24 h, vs negative control, mean ± SEM, read-out: Luminescence intensity (%), Linezolid (200 μM) −
[14] = L132, candidate 50 μM alone, no phenformin, 24 h, vs negative control, mean ± SEM, read-out: Luminescence intensity (%), Phenformin (100 μM) −

Compound | Lactic acid value vs. PC (%) [1, 3] [%] | Lactic acid-decreasing rate vs. PC (%) [1, 3] [%] | Lactic acid value vs. PC (%) [1, 4] [%] | Lactic acid-decreasing rate vs. PC (%) [1, 4] [%] | Lactic acid value vs. PC (%) [1, 5] [%] | Lactic acid-decreasing rate vs. PC (%) [1, 5] [%] | Lactic acid value vs. PC (%) [2, 6] [%] | Lactic acid-decreasing rate vs. PC (%) [2, 6] [%] | Lactic acid value vs. PC (%) [2, 7] [%] | Lactic acid-decreasing rate vs. PC (%) [2, 7] [%] | Lactic acid value vs. PC (%) [2, 8] [%] | Lactic acid-decreasing rate vs. PC (%) [2, 8] [%] | activity at 50 µM [1, 9] [%] | activity at 50 µM [1, 10] [%] | activity at 50 µM [1, 11] [%] | activity at 50 µM [2, 12] [%] | activity at 50 µM [2, 13] [%] | activity at 50 µM [2, 14] [%] | other results
Cc1cc2c(C(C)C)c(O)c(O)c(C=O)c2c(O)c1-c1c(C)cc2c(C(C)C)c(O)c(O)c(C=O)c2c1O [Gossypol] | 62.63 | 37.37 | 67.86 | 32.14 | 67.24 | 32.76 | 50.96 | 49.04 | 67.84 | 32.16 | 51.58 | 48.42 | – | – | – | – | – | – | activity at 50 µM ([1]; A549, 24 h, read-out: Luminescence intensity (%), Berberine (10 μM) −): 87.6 ± 1.87%; activity at 50 µM ([1]; A549, 24 h, read-out: Luminescence intensity (%), Linezolid (200 μM) −): 87.6 ± 1.87%; activity at 50 µM ([1]; A549, 24 h, read-out: Luminescence intensity (%), Phenformin (100 μM) −): 87.6 ± 1.87%; activity at 50 µM ([2]; L132, 24 h, read-out: Luminescence intensity (%), Berberine (10 μM) −): 84.3 ± 2.9%; activity at 50 µM ([2]; L132, 24 h, read-out: Luminescence intensity (%), Linezolid (200 μM) −): 84.3 ± 2.9%; activity at 50 µM ([2]; L132, 24 h, read-out: Luminescence intensity (%), Phenformin (100 μM) −): 84.3 ± 2.9%
N#CN [Cyanamide] | 96.56 | 3.44 | 87.76 | 12.24 | 98.83 | 1.17 | 99.86 | 0.14 | 88.99 | 11.01 | 98.19 | 1.81 | 97.02 ± 0.81 | 97.02 ± 0.81 | 97.02 ± 0.81 | 92.1 ± 1.56 | 92.1 ± 1.56 | 92.1 ± 1.56 | –
CCSC(=O)N1CCCCCC1 [Molinate] | 105.78 | −5.78 | 105.88 | −5.88 | 91.13 | 8.87 | 105.04 | −5.04 | 125.68 | −25.68 | 99.16 | 0.84 | 110 ± 1.91 | 110 ± 1.91 | 110 ± 1.91 | 155 ± 3.38 | 155 ± 3.3 | 155 ± 3.38 | –
